Drawing on ChEMBL document CHEMBL3580582, “The Cephalostatins. 23. Conversion of Hecogenin to a Steroidal 1,6-Dioxaspiro[5.5]nonane Analogue for Cephalostatin 11” (2015), this text covers EC50 and GI50 for nine molecules.

Holding throughout (assay type): functional
The test system of experiment [1] is P388. Description: Cytotoxicity against mouse P388 cells assessed as growth inhibition after 48 hrs by coulter particle counter analysis. The note with it: P388, 48 h, read-out: ED50 (the source's name).
The nature of experiment [2]: Cytotoxicity against human NCI60 cells by SRB assay.
Experiment [3] in a line: Cytotoxicity against human NCI60 cells.

A word on the GI50: it is the concentration that inhibits growth by half. Lower therefore signals greater sensitivity of the cells.

Values after ≈ are worked out from the molar mass of the structure shown.

Turning to `CC(=O)OC[C@]1(C)CC[C@@]2(O[C@H]3C[C@H]4[C@@H]5CC[C@H]6CC(=O)CC[C@]6(C)[C@H]5CC(=O)[C@]4(C)[C@H]3[C@@H]2C)O1`, the EC50 in experiment [1] is over 10 µg/mL.
With `CC(=O)O[C@H]1CC[C@@]2(C)[C@@H](CC[C@@H]3[C@@H]2CC(=O)[C@@]2(C)[C@H]3C[C@@H]3OC(CCC(C)CCl)=C(C)[C@@H]32)C1` (some centres undefined), the EC50 in experiment [1] is over 100 µg/mL.
Take `CC1=C(CCC(C)CCl)O[C@H]2C[C@H]3[C@@H]4CC[C@H]5CC(=O)CC[C@]5(C)[C@H]4CC(=O)[C@]3(C)[C@@H]12` (some centres undefined): the EC50 in experiment [1] is over 100 µg/mL.
Consider `C=C(C)CCC1=C(C)[C@H]2[C@H](C[C@H]3[C@@H]4CC[C@H]5CC(=O)CC[C@]5(C)[C@H]4CC(=O)[C@@]32C)O1`, for which the EC50 in experiment [1] is 14.5 µg/mL (≈ 35.3 µM).
On the same count and under the same terms, with `CC1=C(CC[C@](C)(O)CO)O[C@H]2C[C@H]3[C@@H]4CC[C@H]5CC(=O)CC[C@]5(C)[C@H]4CC(=O)[C@]3(C)[C@@H]12` the figure was 23.4 µg/mL (≈ 52.6 µM).
The same measure, in the same setting: with `CC(=O)OC[C@@](C)(O)CCC1=C(C)[C@H]2[C@H](C[C@H]3[C@@H]4CC[C@H]5CC(=O)CC[C@]5(C)[C@H]4CC(=O)[C@@]32C)O1` the figure was 19.3 µg/mL (≈ 39.7 µM).
`C[C@@H]1[C@]2(O[C@H]3C=C4[C@@H]5CC[C@H]6Cc7nc8c(nc7C[C@]6(C)[C@H]5C[C@@H](O)[C@]4(C)[C@]31O)C[C@@H]1CC[C@H]3C4=C[C@@H]5O[C@]6(CCC(C)(C)O6)[C@@H](C)[C@@H]5[C@@]4(C)[C@H](O)C[C@@H]3[C@@]1(C)C8)O[C@@](C)(CO)C[C@H]2O` yielded a GI50 in experiment [2] of 0.48 nM.
Turning to `C[C@@H]1[C@]2(O[C@H]3C=C4[C@@H]5CC[C@H]6Cc7nc8c(nc7C[C@]6(C)[C@H]5C[C@@H](O)[C@]4(C)[C@]31O)C[C@@H]1CC[C@H]3C4=C[C@@H]5O[C@]6(CCC(C)(C)O6)[C@@H](C)[C@@H]5[C@@]4(C)[C@H](O)C[C@@H]3[C@@]1(C)C8)O[C@](C)(CO)C[C@H]2O`, in experiment [2], the GI50 came to 14 nM.
Regarding `C[C@@H]1[C@]2(O[C@H]3C=C4[C@@H]5CC[C@H]6Cc7nc8c(nc7C[C@]6(C)[C@H]5C[C@@H](O)[C@]4(C)[C@]31O)C[C@@H]1CC[C@H]3C4=CC[C@@H]5[C@H](C)[C@@]6(OC[C@]45C(=O)C[C@@H]3[C@@]1(C)C8)OC(C)(C)C[C@H]6O)O[C@](C)(CO)C[C@H]2O` [CEPHALOSTATIN 1], in experiment [3], the GI50 came to 1.8 nM.
